Assays:
UGT1A1 = conditions: as in patients with Gilbert's syndrome; background; cited from earlier work
[1] = background; cited from earlier work
recombinant human UGT1A6 = target: T1, recombinant human UGT1A6 (Homo sapiens, UniProt P19224); assay: Coupled assay: extracted residues of UGT1A6 / α-naphthol incubation added to b-glucuronidase fluorescence assay (FIG. 3A); type: biochemical
T1 sequence (P19224 27-532): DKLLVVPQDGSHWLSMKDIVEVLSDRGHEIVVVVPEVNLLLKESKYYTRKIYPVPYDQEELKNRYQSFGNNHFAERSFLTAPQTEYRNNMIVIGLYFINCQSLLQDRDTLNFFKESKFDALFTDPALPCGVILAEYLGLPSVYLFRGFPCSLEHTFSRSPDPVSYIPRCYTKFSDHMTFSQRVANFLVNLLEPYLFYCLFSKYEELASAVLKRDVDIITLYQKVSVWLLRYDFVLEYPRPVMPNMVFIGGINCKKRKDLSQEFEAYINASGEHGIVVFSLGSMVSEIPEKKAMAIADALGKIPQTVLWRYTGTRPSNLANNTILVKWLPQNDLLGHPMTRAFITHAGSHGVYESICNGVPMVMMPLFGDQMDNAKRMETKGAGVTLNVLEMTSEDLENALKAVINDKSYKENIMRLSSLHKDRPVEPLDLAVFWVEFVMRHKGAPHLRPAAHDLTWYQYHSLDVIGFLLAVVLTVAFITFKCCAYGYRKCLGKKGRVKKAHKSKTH
Excerpt: All other reagents were analytical grade or better and purchased from a variety of commercial sources.

[2] = target: bacterial b-glucuronidase (Escherichia coli, UniProt P05804); assay: Inhibition of b-glucuronidase cleavage of 4-methylumbelliferyl-b-D-glucuronide by competitor b-D-glucuronides (FIG. 2); type: biochemical; conditions: 20 μM 4-methylumbelliferyl-b-D-glucuronide, result in words
Chain of bacterial b-glucuronidase (P05804 whole entry): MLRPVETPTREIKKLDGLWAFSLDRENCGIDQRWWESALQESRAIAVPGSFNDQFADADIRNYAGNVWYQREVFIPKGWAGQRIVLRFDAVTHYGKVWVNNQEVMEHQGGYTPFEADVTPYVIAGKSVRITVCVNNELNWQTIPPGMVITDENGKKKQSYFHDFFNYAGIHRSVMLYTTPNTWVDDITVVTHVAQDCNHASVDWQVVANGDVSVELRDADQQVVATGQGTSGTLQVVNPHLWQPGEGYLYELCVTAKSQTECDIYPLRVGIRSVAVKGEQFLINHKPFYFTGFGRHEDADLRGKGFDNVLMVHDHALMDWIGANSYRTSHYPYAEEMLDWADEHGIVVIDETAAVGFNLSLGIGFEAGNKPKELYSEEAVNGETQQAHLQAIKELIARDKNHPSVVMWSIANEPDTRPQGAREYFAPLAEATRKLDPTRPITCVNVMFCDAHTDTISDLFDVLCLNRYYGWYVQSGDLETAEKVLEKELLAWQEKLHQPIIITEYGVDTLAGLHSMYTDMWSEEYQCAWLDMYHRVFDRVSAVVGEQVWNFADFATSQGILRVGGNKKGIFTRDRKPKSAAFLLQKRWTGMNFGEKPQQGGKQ
Method: FIG. 1 Kinetic measurements of 4-methylumbelliferylb-D-glucuronide cleavage by b-gluuronidase. In part A, 100 μl assays were performed in triplicate using 100 mM Tris-HCl buffer, pH 7.4, containing 10 mM MgCl2, 0.1 μg/ml b-gluuronidase and 5 (.box-solid.), 20 (.tangle-solidup.), and 100 (.circle-solid.) μM, 4-methylumbelliferyl-b-D-glucuronide. Reactions were started by the addition of enzyme, incubated for indicated times at ambient temperature and then quenched with 100 μl of 0.1 M Na2 CO3, pH 9.5, containing 0.1% CHAPS. Fluorescence intensity was measured with a Beacon fluorescent polarization instrument (PanVera Corporation, Madison, Wis.) in intensity mode, using excitation and emission filters of 360 nm and 440 nm, respectively, and slit widths set at 10 nm. Part B, assays were performed in duplicate for 20 min as above with the indicated amount of 4-methylumbelliferyl-b-D-glucuronide. 4-Methyumbelliferone concentration was determined from a calibration curve.
FIG. 2 Inhibition curves. Assays were performed as described in the legend to FIG. 1B with 20 .quadrature.M 4-methylumbelliferyl-b-D-glucuronide and the indicated amount of competitor b-D-glucuronide. Fluorescence intensity due to 4-methylumbelliferyl-b-D-glucuronide cleavage, in the absence of a competitor was arbitrarily assigned as 100%. Competitors, α-napthyl b-D-glucuronide (.box-solid.), .quadrature.-trifluoromethylumbelliferyl-b-D-glucuronide (o), .quadrature.-estradiol 3-.quadrature.b-D-glucuronide) (.tangle-solidup.), p-acetominophenyl b-D-glucuronide (.circle-solid.), 5.quadrature.-androstane-3α, 17α-diol-11-one-17-carboxylic acid-3-(b-D-glucuronide) (.tangle-soliddn.) and UDPGA (.E-backward.) were dissolved in 100 mM Tris-HCl, containing 10 mM MgCl2, pH 7.5. Tetrahydrocortisone 3-b-D-glucuronide (.diamond-solid.) was prepared in DMSO. The DMSO in reaction mixtures was 0.1% or less.
Assay Principle: Cleavage of 4-methylumbelliferyl b-D-glucuronide by bacterial b-glucuronidase generates the highly fluorescent compound, 4-methylumbelliferone. Diverse b-D-glucuronides act as competitors of b-glucuronidase, thus providing the basis of a coupled assay method for detection of glucuronide production by recombinant UGT isozymes. […] The 4-methylumbelliferyl b-D-glucuronide cleavage assay can easily be adapted to high throughput formats to detect the presence of b-D glucuronides generated using recombinant glycosyl transferase preparations.
Methods are included in text and figure legends. b-D-glucuronidase (Part G-7396), α-napthyl b-D-glucuronide, b-trifluoromethylumbelliferyl b-D-glucuronide, b-estradiol 3-(b-D-glucuronide), p-acetominophenyl b-D-glucuronide, 5 .quadrature.-androstane-3α, 17α-diol-11-one-17-carboxilic acid-3-(b-D-glucuronide), UDPGA and 4-methylumbelliferone b-D-glucuronide were obtained from Sigma, St. Louis Mo. Tetrahydrocortisone 3-b-D-glucuronide was obtained from Molecular Probes, Eugene, Oreg. Recombinant control and UGT1A6 membrane preparations were generated at PanVera Corporation and are commercially available from PanVera, Madison Wis. All other reagents were analytical grade or better and purchased from a variety of commercial sources.
In order to show the feasibility of developing a high throughput inhibition assay, we examined the potential of a variety of structurally dissimilar commercially available b-D-glucuronides to act as inhibitors for the cleavage of 4-methylumbelliferyl-b-D-glucuronide. […]

UGT1A6 = assay: Accumulation of naphthyl glucuronide in UGT1A6 assay using [14C] UDPGA; type: in vitro ADME, human; conditions: parallel experiment using [14C] UDPGA, data not shown
Method: Two approaches were taken to test the feasibility of coupling the UGT-dependent production of glucuronides to inhibition of fluorescent product formation by b-D-glucuronidase. The first involved extracting the UGT reaction products and adding them to the b-D-glucuronidase fluorescence assay reagents; the second involved adding the b-D-glucuronidase reaction components directly to the quenched UGT reaction. In the first approach, α-naphthyl b-D-glucuronide was generated in an incubation with recombinant human UGT1A6 and α-naphthol. Following extraction, 4-methylumbelliferyl-b-D-glucuronide assay reagents were added to the extracted, dried reaction residues. […] Inhibition of 4-methylumbelliferyl-b-D-glucuronide cleavage was dependent on the incubation time of the UGT1A6 assay, presumably reflecting increased .quadrature.-naphthyl glucuronide accumulation.

[3] = background; cited from earlier work; remark: listed apart in the source

For CCc1c2c(nc3ccc(OC(=O)N4CCC(N5CCCCC5)CC4)cc13)-c1cc3c(c(=O)n1C2)COC(=O)[C@]3(O)CC [Irinotecan], the “toxicity associated with low expression of UGT1A1” value (UGT1A1) is given as “associated with the toxicity”.
For CN1CC[C@]23c4c5ccc(O[C@@H]6O[C@H](C(=O)O)[C@@H](O)[C@H](O)[C@H]6O)c4O[C@H]2[C@@H](O)C=C[C@H]3[C@H]1C5 [3-glucuronide], the activity towards morphine [1] is given as “morphine antagonist”.
With Oc1cccc2ccccc12 [α-naphthol] the “interference of aglycone with the 4-methylumbelliferyl-b-D-glucuronide cleavage assay” value (recombinant human UGT1A6) was “does not interfere non-specifically”.
For C[C@]12CC[C@@H]3c4ccc(O[C@@H]5O[C@H](C(=O)O)[C@@H](O)[C@H](O)[C@H]5O)cc4CC[C@H]3[C@@H]1CC[C@@H]2O [b-estradiol-3-(b-D-glucuronide), b-estradiol 3-(b-D-glucuronide)], the “inhibition of 4-methylumbelliferyl-b-D-glucuronide cleavage (production of 4-methylumbelliferone) by b-glucuronidase” value (from here on “inhibition … by b-glucuronidase”) [2] was “strongest” and the “inhibition … by b-glucuronidase” value ([2]; listed as estradiol b-D-glucuronide) was “More potent inhibitors”.
In the case of O=C(O)[C@H]1O[C@@H](Oc2cccc3ccccc23)[C@H](O)[C@@H](O)[C@@H]1O [α-naphthyl b-D-glucuronide], the “inhibition … by b-glucuronidase” value [2] is reported as “weakest”, the “inhibition … by b-glucuronidase” value ([2]; listed as α-naphthol b-D-glucuronide) is reported as “weak competitive inhibitor” and the “accumulation of naphthyl glucuronide in the UGT1A6 assay” value (UGT1A6) is reported as “independently verified”. For the same compound, the “inhibition of 4-methylumbelliferyl-b-D-glucuronide cleavage by extracted residues of UGT1A6 assay” value (recombinant human UGT1A6; FIG. 3A, 0.6 mg/ml UGT1A6, 2 mM UDPGA, 0.6 mM α-naphthol, 37° C, ethyl acetate extraction, vs control microsomes) was “inhibited 4-methylumbelliferyl-b-D-glucuronide cleavage”.
For O=C(O)[C@H]1O[C@H](OP(=O)(O)OP(=O)(O)OC[C@H]2O[C@@H](n3ccc(=O)[nH]c3=O)[C@H](O)[C@@H]2O)[C@H](O)[C@@H](O)[C@@H]1O [Uridine 5'-diphosphoglucuronic acid], the “inhibition … by b-glucuronidase” value [2] was “not an effective competitor over the range tested”.
For CN1CC[C@]23c4c5ccc(O)c4O[C@H]2[C@@H](O[C@@H]2O[C@H](C(=O)O)[C@@H](O)[C@H](O)[C@H]2O)C=C[C@H]3[C@H]1C5 [6-glucuronide of morphine], the “analgesic potency relative to the parent compound morphine” value [3] is given as “more potent analgesic than the parent compound”.

Source: patent US6319678A, “Process for glucuronidation screening” (PanVera Corporation, priority 1999, dated 2001)
